Reference: patent publication US10597388B2, “Pyridazinone herbicides” (FMC CORPORATION, priority 2014, dated 2020)

What was measured:
Assay in all cases: Test D controlled growth environment herbicide test, pre- and postemergence
Format in all cases: in vivo
[1] = test system: canarygrass (Phalaris minor)
Excerpt: (§1) Seeds of plant species selected from bluegrass (annual bluegrass, Poa annua), blackgrass (Alopecurus myosuroides), Canada thistle (Cirsium arvense), canarygrass (Phalaris minor), chickweed (common chickweed, Stellaria media), geranium, cutleaf (cutleaf geranium, Geranium dissectum), galium (catchweed bedstraw, Galium aparine), bromegrass, downy (downy bromegrass, Bromus tectorum), field poppy (Papaver rhoeas), field violet (Viola arvensis), foxtail, green (green foxtail, Setaria viridis), deadnettle (henbit deadnettle, Lamium amplexicaule), ryegrass, Italian (Italian ryegrass, Lolium multiflorum), kochia (Kochia scoparia), lambsquarters (Chenopodium album), oilseed rape (Brassica napus), pigweed (Amaranthus retroflexus), chamomile (scentless chamomile, Matricaria inodora), Russian thistle (Salsola kali), speedwell (bird's-eye speedwell, Veronica persica), barley, spring (spring barley, Hordeum vulgare), wheat, spring (spring wheat, Triticum aestivum), buckwheat, wild (wild buckwheat, Polygonum convolvulus), mustard, wild (wild mustard, Sinapis arvensis), oat, wild (wild oat, Avena fatua), radish, wild (wild radish, Raphanus raphanistrum), windgrass (Apera spica-venti), barley, winter (winter barley, Hordeum vulgare), and wheat, winter (winter wheat, Triticum aestivum) were planted into a silt loam soil and treated preemergence with test chemicals formulated in a non-phytotoxic solvent mixture which included a surfactant.
(§2) At the same time, these species were planted in pots containing Redi-Earth® planting medium (Scotts Company, 14111 Scottslawn Road, Marysville, Ohio 43041) comprising spaghnum peat moss, vermiculite, wetting agent and starter nutrients and treated with postemergence applications of the test chemicals formulated in the same manner. Plants ranged in height from 2 to 18 cm (1- to 4-leaf stage). Treated plants and controls were maintained in a controlled growth environment for 14 to 21 d after which time all species were compared to controls and visually evaluated. Plant response ratings, summarized in Table D, are based on a scale of 0 to 100 where 0 is no effect and 100 is complete control. A dash (-) response means no test result.

[2] = test system: radish, wild (wild radish, Raphanus raphanistrum)
Excerpt: as §1, §2

[3] = test system: mustard, wild (wild mustard, Sinapis arvensis)
Excerpt: as §1, §2

[4] = test system: wheat, winter (winter wheat, Triticum aestivum)
Excerpt: as §1, §2

[5] = test system: ryegrass, Italian (Italian ryegrass, Lolium multiflorum)
Excerpt: as §1, §2

[6] = test system: windgrass (Apera spica-venti)
Excerpt: as §1, §2

[7] = test system: chickweed (common chickweed, Stellaria media)
Excerpt: as §1, §2

[8] = test system: foxtail, green (green foxtail, Setaria viridis)
Excerpt: as §1, §2

[9] = test system: barley, winter (winter barley, Hordeum vulgare)
Excerpt: as §1, §2

[10] = test system: field poppy (Papaver rhoeas)
Excerpt: as §1, §2

[11] = test system: deadnettle (henbit deadnettle, Lamium amplexicaule)
Excerpt: as §1, §2

[12] = test system: bluegrass (annual bluegrass, Poa annua)
Excerpt: as §1, §2

[13] = test system: barley, spring (spring barley, Hordeum vulgare)
Excerpt: as §1, §2

[14] = Postemergence, 31 g ai/ha, scale 0 to 100 (0 no effect, 100 complete control)
[15] = Postemergence, 125 g ai/ha, visual rating on scale 0 (no effect) to 100 (complete control), 14 to 21 d
[16] = Postemergence, 250 g ai/ha, scale 0 to 100 (0 no effect, 100 complete control)
[17] = Preemergence, 62 g ai/ha, scale 0 to 100 (0 no effect, 100 complete control)
[18] = Preemergence, 125 g ai/ha, scale 0 to 100 (0 no effect, 100 complete control)
[19] = Preemergence, 250 g ai/ha, scale 0 to 100 (0 no effect, 100 complete control)
[20] = postemergence, 62 g ai/ha, scale 0 to 100, 0 no effect, 100 complete control

SMILES: Cc1cc(C)c2sc(C)c(-c3c(OC(=O)OC(C)C)c(C)nn(C)c3=O)c2c1 [Compound 67]
- Canarygrass plant response rating [1, 14]: 75
- Plant response rating, Canarygrass [1, 15]: 85
- Plant response rating, Canarygrass [1, 16]: 95
- Plant response rating (scale of 0 to 100), Canarygrass ([1]; Preemergence, 31 g ai/ha): 40
- Plant response rating, Canarygrass [1, 17]: 85
- Plant response rating, Canarygrass [1, 18]: 90
- Plant response rating, Canarygrass [1, 19]: 95
- Plant response rating, Canarygrass [1, 20]: 85
- Radish, Wild plant response rating [2, 14]: 55
- Plant response rating, Radish, Wild [2, 15]: 70
- Plant response rating, Radish, Wild [2, 16]: 95
- Plant response rating (scale of 0 to 100), Radish, Wild ([2]; Preemergence, 31 g ai/ha): 25
- Plant response rating, Radish, Wild [2, 17]: 60
- Plant response rating, Radish, Wild [2, 18]: 75
- Plant response rating, Radish, Wild [2, 19]: 95
- Plant response rating, Radish, Wild [2, 20]: 65
- Mustard, Wild plant response rating [3, 14]: 25
- Plant response rating, Mustard, Wild [3, 15]: 40
- Plant response rating, Mustard, Wild [3, 16]: 65
- Plant response rating (scale of 0 to 100), Mustard, Wild ([3]; Preemergence, 31 g ai/ha): 0
- Plant response rating, Mustard, Wild [3, 17]: 0
- Plant response rating, Mustard, Wild [3, 18]: 0
- Plant response rating, Mustard, Wild [3, 19]: 0
- Plant response rating, Mustard, Wild [3, 20]: 35
- Wheat, Winter plant response rating [4, 14]: 0
- Plant response rating, Wheat, Winter [4, 15]: 0
- Plant response rating, Wheat, Winter [4, 16]: 0
- Plant response rating (scale of 0 to 100), Wheat, Winter ([4]; Preemergence, 31 g ai/ha): 0
- Plant response rating, Wheat, Winter [4, 17]: 0
- Plant response rating, Wheat, Winter [4, 18]: 0
- Plant response rating, Wheat, Winter [4, 19]: 5
- Plant response rating, Wheat, Winter [4, 20]: 0
- Ryegrass, Italian plant response rating [5, 14]: 85
- Plant response rating, Ryegrass, Italian [5, 15]: 98
- Plant response rating, Ryegrass, Italian [5, 16]: 100
- Plant response rating (scale of 0 to 100), Ryegrass, Italian ([5]; Preemergence, 31 g ai/ha): 75
- Plant response rating, Ryegrass, Italian [5, 17]: 80
- Plant response rating, Ryegrass, Italian [5, 18]: 85
- Plant response rating, Ryegrass, Italian [5, 19]: 90
- Plant response rating, Ryegrass, Italian [5, 20]: 90
- Windgrass plant response rating [6, 14]: 85
- Plant response rating, Windgrass [6, 15]: 90
- Plant response rating, Windgrass [6, 16]: 90
- Plant response rating (scale of 0 to 100), Windgrass ([6]; Preemergence, 31 g ai/ha): 30
- Plant response rating, Windgrass [6, 17]: 75
- Plant response rating, Windgrass [6, 18]: 80
- Plant response rating, Windgrass [6, 19]: 95
- Plant response rating, Windgrass [6, 20]: 85
- Chickweed plant response rating [7, 14]: 85
- Plant response rating, Chickweed [7, 15]: 100
- Plant response rating, Chickweed [7, 16]: 100
- Plant response rating (scale of 0 to 100), Chickweed ([7]; Preemergence, 31 g ai/ha): 100
- Plant response rating, Chickweed [7, 17]: 100
- Plant response rating, Chickweed [7, 18]: 100
- Plant response rating, Chickweed [7, 19]: 100
- Plant response rating, Chickweed [7, 20]: 100
- Foxtail, Green plant response rating [8, 14]: 80
- Plant response rating, Foxtail, Green [8, 15]: 100
- Plant response rating, Foxtail, Green [8, 16]: 100
- Plant response rating (scale of 0 to 100), Foxtail, Green ([8]; Preemergence, 31 g ai/ha): 15
- Plant response rating, Foxtail, Green [8, 17]: 80
- Plant response rating, Foxtail, Green [8, 18]: 85
- Plant response rating, Foxtail, Green [8, 19]: 85
- Plant response rating, Foxtail, Green [8, 20]: 90
- Barley, Winter plant response rating [9, 14]: 0
- Plant response rating, Barley, Winter [9, 15]: 5
- Plant response rating, Barley, Winter [9, 16]: 10
- Plant response rating (scale of 0 to 100), Barley, Winter ([9]; Preemergence, 31 g ai/ha): 0
- Plant response rating, Barley, Winter [9, 17]: 0
- Plant response rating, Barley, Winter [9, 18]: 0
- Plant response rating, Barley, Winter [9, 19]: 0
- Plant response rating, Barley, Winter [9, 20]: 0
- Field Poppy plant response rating [10, 14]: 80
- Plant response rating, Field Poppy [10, 15]: 100
- Plant response rating, Field Poppy [10, 16]: 100
- Plant response rating (scale of 0 to 100), Field Poppy ([10]; Preemergence, 31 g ai/ha): 100
- Plant response rating, Field Poppy [10, 17]: 100
- Plant response rating, Field Poppy [10, 18]: 100
- Plant response rating, Field Poppy [10, 19]: 100
- Plant response rating, Field Poppy [10, 20]: 100
- Deadnettle plant response rating [11, 14]: 40
- Plant response rating, Deadnettle [11, 15]: 40
- Plant response rating, Deadnettle [11, 16]: 60
- Plant response rating (scale of 0 to 100), Deadnettle ([11]; Preemergence, 31 g ai/ha): 15
- Plant response rating, Deadnettle [11, 17]: 30
- Plant response rating, Deadnettle [11, 18]: 55
- Plant response rating, Deadnettle [11, 19]: 60
- Plant response rating, Deadnettle [11, 20]: 30
- Bluegrass plant response rating [12, 14]: 5
- Plant response rating, Bluegrass [12, 15]: 20
- Plant response rating, Bluegrass [12, 16]: 30
- Plant response rating (scale of 0 to 100), Bluegrass ([12]; Preemergence, 31 g ai/ha): 0
- Plant response rating, Bluegrass [12, 17]: 0
- Plant response rating, Bluegrass [12, 18]: 20
- Plant response rating, Bluegrass [12, 19]: 50
- Plant response rating, Bluegrass [12, 20]: 15
- Barley, Spring plant response rating [13, 14]: 0
- Plant response rating, Barley, Spring [13, 15]: 10
- Plant response rating, Barley, Spring [13, 16]: 20
- Plant response rating (scale of 0 to 100), Barley, Spring ([13]; Preemergence, 31 g ai/ha): 0
- Plant response rating, Barley, Spring [13, 17]: 0
- Plant response rating, Barley, Spring [13, 18]: 0
- Plant response rating, Barley, Spring [13, 19]: 0
- Plant response rating, Barley, Spring [13, 20]: 5
